# Assay results from the supplement of paper PMC11451515.
# Tested on: SEM cells
# Experiment: cell viability relative to DMSO control; higher = less cytotoxic
# Settings: 48 h
# Method in brief: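 NOMO1, SEM and P12-Ichikawa leukemia cells spent at least four passages adapting to each medium before use. They were seeded at 500 cells/well (NOMO1, SEM) or 1000 cells/well (P12-Ichikawa) in 5 μl in 1536-well plates and pin-dosed with library compounds in DMSO at 11 threefold steps from 47 μM down to 0.79 nM. After 48 h at 37°C, CellTiter-Glo One luminescence was read. Viability is reported as a percentage of the DMSO wells on each plate, with cell-free wells as background.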
# [1] = HPLM + 10% dialyzed FBS, 0.000781 µM
# [2] = HPLM + 10% dialyzed FBS, 0.00234 µM
# [3] = HPLM + 10% dialyzed FBS, 0.00702 µM
# [4] = HPLM + 10% dialyzed FBS, 0.0211 µM
# [5] = HPLM + 10% dialyzed FBS, 0.0632 µM
# [6] = HPLM + 10% dialyzed FBS, 0.19 µM
# [7] = HPLM + 10% dialyzed FBS, 0.569 µM
# [8] = HPLM + 10% dialyzed FBS, 1.71 µM
# [9] = HPLM + 10% dialyzed FBS, 5.12 µM
# [10] = HPLM + 10% dialyzed FBS, 15.4 µM
# [11] = HPLM + 10% dialyzed FBS, 46.1 µM
# [12] = RPMI 5 mM glucose + 10% FBS, 0.000781 µM
# [13] = RPMI 5 mM glucose + 10% FBS, 0.00234 µM
# [14] = RPMI 5 mM glucose + 10% FBS, 0.00702 µM
# [15] = RPMI 5 mM glucose + 10% FBS, 0.0211 µM
# [16] = RPMI 5 mM glucose + 10% FBS, 0.0632 µM
# [17] = RPMI 5 mM glucose + 10% FBS, 0.19 µM
# [18] = RPMI 5 mM glucose + 10% FBS, 0.569 µM
# [19] = RPMI 5 mM glucose + 10% FBS, 1.71 µM
# [20] = RPMI 5 mM glucose + 10% FBS, 5.12 µM
# [21] = RPMI 5 mM glucose + 10% FBS, 15.4 µM
# [22] = RPMI 5 mM glucose + 10% FBS, 46.1 µM
# [23] = RPMI 5 mM glucose + 10% dialyzed FBS, 0.000781 µM
# [24] = RPMI 5 mM glucose + 10% dialyzed FBS, 0.00234 µM
# [25] = RPMI 5 mM glucose + 10% dialyzed FBS, 0.00702 µM
# [26] = RPMI 5 mM glucose + 10% dialyzed FBS, 0.0211 µM
# [27] = RPMI 5 mM glucose + 10% dialyzed FBS, 0.0632 µM
# [28] = RPMI 5 mM glucose + 10% dialyzed FBS, 0.19 µM
# [29] = RPMI 5 mM glucose + 10% dialyzed FBS, 0.569 µM
# [30] = RPMI 5 mM glucose + 10% dialyzed FBS, 1.71 µM
# [31] = RPMI 5 mM glucose + 10% dialyzed FBS, 5.12 µM
# [32] = RPMI 5 mM glucose + 10% dialyzed FBS, 15.4 µM
# [33] = RPMI 5 mM glucose + 10% dialyzed FBS, 46.1 µM
SMILES,cell viability [1] [%],cell viability [2] [%],cell viability [3] [%],cell viability [4] [%],cell viability [5] [%],cell viability [6] [%],cell viability [7] [%],cell viability [8] [%],cell viability [9] [%],cell viability [10] [%],cell viability [11] [%],cell viability [12] [%],cell viability [13] [%],cell viability [14] [%],cell viability [15] [%],cell viability [16] [%],cell viability [17] [%],cell viability [18] [%],cell viability [19] [%],cell viability [20] [%],cell viability [21] [%],cell viability [22] [%],cell viability [23] [%],cell viability [24] [%],cell viability [25] [%],cell viability [26] [%],cell viability [27] [%],cell viability [28] [%],cell viability [29] [%],cell viability [30] [%],cell viability [31] [%],cell viability [32] [%],cell viability [33] [%]
C[C@]12CC[C@H]3[C@@H](CC[C@H]4NC(=O)\C=C/[C@]34C)[C@@H]1CC[C@@H]2C(=O)NC5=CC(=CC=C5C(F)(F)F)C(F)(F)F,116,122,118,117,118,61.3,119,113,81.1,111,99.3,123,120,138,132,120,115,124,129,56,128,126,114,141,120,126,121,100,126,121,37.1,117,105
CCC[S+]([O-])c1ccc2[nH]c(NC(=O)OC)nc2c1 (centres undefined),78.9,96.2,111,86.7,100,105,83.1,94.9,94.6,38.2,33.4,74.9,99.4,100,99.3,114,93.9,82,84.9,91.8,24.4,32.2,72.7,99.8,95.9,109,101,113,83.1,105,98.6,23.2,17.3
O=c1[nH]c(=O)n([C@H]2C[C@H](O)[C@@H](CO)O2)cc1/C=C/Br,92.7,116,101,120,119,119,114,100,86.4,78.7,60.2,101,121,114,109,123,105,119,117,115,119,120,90.8,117,103,98.6,106,112,116,116,111,102,82.2
CCOC(=O)N1CCN(/[N+]([O-])=N/Oc2ccc([N+](=O)[O-])cc2C#N)CC1,85,88.8,86.5,91.4,120,106,109,25.2,15.3,13.6,9.4,104,108,106,109,110,125,114,16,10.6,10.3,7.12,106,92.3,108,107,114,117,104,22.4,12.1,12.2,9.24
CN[C@H]1CCC2=CC(=C(OC)C(=C2C/3=C/C=C(OC)\C(=O)/C=C13)OC)OC,108,102,64.8,23,24.1,28.6,23.3,18.4,13.4,12,4.23,123,122,85,16.8,20.8,21.6,18,14.3,9.18,7.14,2.84,97.1,88.9,62.8,17.8,21.4,23.9,20.4,12.6,9.12,7.84,3.33
c1ccc2[nH]c(-c3cscn3)nc2c1,93.6,120,111,107,115,105,109,69,111,42.7,116,98.5,132,121,85.9,112,108,126,71.3,103,23.7,71.7,112,127,121,94.4,129,132,139,80.6,124,33.7,97.3
OC[C@H]1O[C@H]([C@H](O)[C@@H]1O)N2\C=C/C(=O)NC2=O,107,107,107,115,123,124,122,103,115,92.7,90.7,96.8,105,102,102,107,91.9,114,78.3,93.2,78.3,86.1,101,110,103,106,92.8,117,108,91,105,94.3,88.3
COc1ccc(-c2ccc3ncc4c(c3c2)n(-c2ccc(N3CCNCC3)c(C(F)(F)F)c2)c(=O)n4C)cn1,72.5,65.5,54.5,44.2,37.2,31.8,31.2,4.63,4.31,3.49,2.31,95.8,77.7,60.3,55.9,45.1,23.6,21.5,5.49,5.48,3.64,2.49,70,73.5,54.5,46.5,46,25.1,18.4,5.55,5.1,3.87,2.59
